According to ChEMBL document CHEMBL4304764, “Identification of a RIP1 Kinase Inhibitor Clinical Candidate (GSK3145095) for the Treatment of Pancreatic Cancer” (ACS Med Chem Lett, 2019):

What was measured:
[1] = Chromatographic hydrophobicity index, log D of the compound at pH 7.4 by RP-HPLC analysis; format: physicochemical; conditions: buffer
[2] = AUC (0 to infinity) in rat at 2 mg/kg, po; format: ADME, organism-based; design: dose 2 mg/kg, route oral, time infinity; conditions: in vivo
[3] = Clearance in rat at 1 mg/kg, iv; format: ADME, organism-based; conditions: in vivo
[4] = Clearance in rat at 1 mg/kg, iv relative to liver blood flow; format: ADME, organism-based; conditions: in vivo
[5] = Volume of distribution at steady state in rat at 1 mg/kg, iv; format: ADME, organism-based; conditions: in vivo, read-out: Vdss
[6] = Half life in rat at 1 mg/kg, iv; format: ADME, organism-based; conditions: in vivo
[7] = Cmax in rat at […], po; format: ADME, organism-based; design: dose 2.1 mg/kg, route oral; conditions: in vivo
[8] = AUC in rat at […], po; format: ADME, organism-based; conditions: in vivo
[9] = Clearance in dog at 1.1 mg/kg, iv; format: ADME, organism-based, Canis lupus familiaris; conditions: in vivo
[10] = Clearance in dog at 1.1 mg/kg, iv relative to liver blood flow; format: ADME, organism-based, Canis lupus familiaris; conditions: in vivo
[11] = Volume of distribution at steady state in dog at 1.1 mg/kg, iv; format: ADME, organism-based, Canis lupus familiaris; conditions: in vivo, read-out: Vdss
[12] = Cmax in dog at 2 mg/kg, po; format: ADME, organism-based, Canis lupus familiaris; design: dose 2 mg/kg, route oral; conditions: in vivo
[13] = AUC in dog at 2 mg/kg, po; format: ADME, organism-based, Canis lupus familiaris; conditions: in vivo
[14] = Clearance in monkey at […], iv relative to liver blood flow; format: ADME, organism-based, Macaca mulatta; conditions: rhesus monkey, in vivo
[15] = Half life in monkey at […], iv; format: ADME, organism-based, Macaca mulatta; conditions: rhesus monkey, in vivo
[16] = AUC in monkey at […], po; format: ADME, organism-based, Macaca mulatta; conditions: rhesus monkey, in vivo
[17] = Metabolic stability in rat hepatocytes in presence of NADPH; format: ADME, cell-based, Hepatocyte
[18] = Metabolic stability in monkey hepatocytes in presence of NADPH; format: ADME, cell-based, Macaca mulatta, Hepatocyte; conditions: rhesus monkey
[19] = Metabolic stability in human hepatocytes in presence of NADPH; format: ADME, cell-based, Hepatocyte
in vivo [20] = conditions: rat, po
in vivo [21] = conditions: dog, po, 2 mg/kg

Q: Which results are given for CN1C(=O)[C@@H](NC(=O)c2n[nH]c(Cc3ccccc3)n2)CCc2cc(F)cc(F)c21?
A: logD [1]: 4.3; AUC(0-inf) [2]: 0.16 µg·h/mL

Q: Which results are given for O=C(N[C@H]1COc2ccccc2NC1=O)c1n[nH]c(Cc2ccccc2)n1?
A: logD [1]: 3; AUC(0-inf) [2]: 2.5 µg·h/mL

Q: Which logD [1] does the source give for CN1C(=O)[C@@H](NC(=O)c2n[nH]c(Cc3ccccc3)n2)CCc2ccccc21 here?
A: 3.8

Q: What about the AUC(0-inf) [2] of the same molecule?
A: 0.31 µg·h/mL

Q: Which logD [1] does the source give for O=C(N[C@H]1COc2ccccc2NC1=O)c1cc(Cc2ccccc2)on1 here?
A: 5.1

Q: With O=C(N[C@H]1CCc2ccccc2NC1=O)c1n[nH]c(Cc2ccccc2)n1 as the molecule, how does the logD [1] read?
A: 3.1

Q: For O=C(N[C@H]1CCc2cc(F)cc(F)c2NC1=O)c1n[nH]c(Cc2ccccc2)n1, which logD [1] is on record?
A: 3.4

Q: And the AUC(0-inf) [2]?
A: 1.1 µg·h/mL

Q: And the clearance [3]?
A: 1.62 L/h/kg

Q: And the CL [4]?
A: 35%

Q: What about the Vd [5] of the same molecule?
A: 1.8 L/kg

Q: What about the half-life [6] of the same molecule?
A: 132 min

Q: What about the Cmax [7] of the same molecule?
A: 0.32 µg/mL

Q: What about the AUC [8] of the same molecule?
A: 1.1 µg·h/mL

Q: What about the clearance [9] of the same molecule?
A: 0.588 L/h/kg

Q: And the CL [10]?
A: 18%

Q: What about the Vd [11] of the same molecule?
A: 1.1 L/kg

Q: And the Cmax [12]?
A: 0.91 µg/mL

Q: And the AUC [13]?
A: 2.5 µg·h/mL

Q: What about the CL [14] of the same molecule?
A: 15%

Q: And the t1/2 [15]?
A: 252 min

Q: What about the AUC [16] of the same molecule?
A: 4.4 µg·h/mL

Q: What about the Stability [17] of the same molecule?
A: Stable

Q: And the Stability [18]?
A: Stable

Q: What about the Stability [19] of the same molecule?
A: Stable

Q: What about the Tmax (in vivo [20]) of the same molecule?
A: 49.8 min

Q: And the Tmax (in vivo [21])?
A: 45 min
